# According to patent US20120276047A1, “FUSED TRICYCLIC COMPOUNDS AND DERIVATIVES THEREOF USEFUL FOR THE TREATMENT OF VIRAL DISEASES” (priority 2009, published 2012):
# System: HCV replicon cells
# Assay: Cell-based HCV replicon assay
# Details: Hepatitis C virus, 72 h; replicon RNA level by real time PCR (Taqman), cells harvested on day 3; EC50 = concentration to achieve ΔCT=1 over baseline
# Procedure: To measure cell-based anti-HCV activity of selected compounds of the present invention, replicon cells were seeded at 5000 cells/well in 96-well collagen I-coated Nunc plates in the presence of the test compound. Various concentrations of test compound, typically in 10 serial 2-fold dilutions, were added to the assay mixture, with the starting concentration ranging from 250 μM to 1 μM. The final concentration of DMSO was 0.5%, fetal bovine serum was 5%, in the assay media. Cells were harvested on day 3 by the addition of 1× cell lysis buffer (Ambion cat #8721). The replicon RNA level was measured using real time PCR (Taqman assay). The amplicon was located in 5B. The PCR primers were: 5B.2F, ATGGACAGGCGCCCTGA; 5B.2R, […]; the probe sequence was FAM-labeled CACGCCATGCGCTGCGG. GAPDH RNA was used as endogenous control and was amplified in the same reaction as NS5B (multiplex PCR) using primers and VIC-labeled probe recommended by the manufacturer (PE Applied Biosystem). […] Alternatively, to quantitate the absolute amount of replicon RNA, a standard curve was established by including serially diluted T7 transcripts of replicon RNA in the Taqman assay. […]
smiles,measurement,value
COC(=O)N[C@@H](C(=O)N1CCC[C@H]1c1nc2ccc3cc(-c4ccc5c(ccc6nc([C@@H]7CCCN7C(=O)[C@H](NC(=O)OC)C(C)C)[nH]c65)n4)ccc3c2[nH]1)C(C)C [Compound 1],EC50,< 1 nM
